The text below walks through data of BindingDB's records for doi:10.1016/j.ejmech.2016.11.024 (Guangxi Normal University, 2017).

The structures appear in SMILES notation. pIC50: −log10 of the molar value. Where only a bound is given, the exact number is not on record here.

Assay [1] has as its target T1, Proteasome subunit beta type-1 (Homo sapiens, UniProt P20618).
T1 sequence (P20618 whole entry): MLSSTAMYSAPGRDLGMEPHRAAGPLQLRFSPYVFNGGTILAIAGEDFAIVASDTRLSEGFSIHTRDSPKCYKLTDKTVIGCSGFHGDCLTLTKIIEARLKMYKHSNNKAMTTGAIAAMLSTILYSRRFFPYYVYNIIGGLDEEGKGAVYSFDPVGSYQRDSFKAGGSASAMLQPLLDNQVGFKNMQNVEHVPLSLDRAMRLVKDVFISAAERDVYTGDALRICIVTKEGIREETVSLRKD
Nature of the assay: Inhibition of PGPH activity of human 20S proteasome using (Z)-LLE-bNA as substrate by fluorometric method.

In assay [2] the target is Proteasome subunit beta type-2 (Homo sapiens, UniProt P49721). Nature of the assay: Inhibition of trypsin-like activity of human 20S proteasome using Bz-VGR-AMC as substrate by fluorometric method.

What is called pIC50 is −log10 of the IC50, conventionally taken in molar units. Read a low pIC50 as a large IC50.

Sequence of Proteasome subunit beta type-2 (P49721 whole entry): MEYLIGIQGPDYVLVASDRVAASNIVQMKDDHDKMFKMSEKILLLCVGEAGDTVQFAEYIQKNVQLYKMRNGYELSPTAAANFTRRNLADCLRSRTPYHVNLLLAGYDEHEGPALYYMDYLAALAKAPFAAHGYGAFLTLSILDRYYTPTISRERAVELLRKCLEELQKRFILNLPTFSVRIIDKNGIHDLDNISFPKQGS

On to `CC[C@H](C)[C@H](NC(=S)Nc1cccc([N+](=O)[O-])c1)C(=O)N[C@H](Cc1ccccc1)C(=O)Nc1cccc(C(F)(F)F)c1`, for which the pIC50 in assay [1] was 4.46.
The same measure, in the same setting: then `CC[C@H](C)[C@H](/N=C(/Nc1cccc(C(F)(F)F)c1)SC)C(=O)N[C@H](Cc1ccccc1)C(=O)Nc1cccc(C(F)(F)F)c1`, with 4.65.
For `CC[C@H](C)[C@H](NC(=S)Nc1ccc(C(F)(F)F)cc1)C(=O)N[C@H](Cc1ccccc1)C(=O)Nc1cccc(Br)c1`, the pIC50 in assay [1] is 4.64; in assay [2] it was below 4.30.
